# Test results as given in article PMC7004070 (Chemmedchem, 2019).
# Entries after “also recorded” stand apart in the source; their conditions may differ.
# Columns and labels:
# [1] = molecular target: T1, human full-length FXR (Homo sapiens, UniProt Q96RI1); test: full-length FXR-BSEP reporter gene assay; type: cell-based; conditions: for Emax: HeLa, read-out: FXR max. rel. act.; for FXR EC50: full-length FXR-BSEP reporter gene assay, HeLa cells, mean±S.E.M., n≥3, inactive = no significant activation up to 30 μM
# T1 sequence (Q96RI1 1-486): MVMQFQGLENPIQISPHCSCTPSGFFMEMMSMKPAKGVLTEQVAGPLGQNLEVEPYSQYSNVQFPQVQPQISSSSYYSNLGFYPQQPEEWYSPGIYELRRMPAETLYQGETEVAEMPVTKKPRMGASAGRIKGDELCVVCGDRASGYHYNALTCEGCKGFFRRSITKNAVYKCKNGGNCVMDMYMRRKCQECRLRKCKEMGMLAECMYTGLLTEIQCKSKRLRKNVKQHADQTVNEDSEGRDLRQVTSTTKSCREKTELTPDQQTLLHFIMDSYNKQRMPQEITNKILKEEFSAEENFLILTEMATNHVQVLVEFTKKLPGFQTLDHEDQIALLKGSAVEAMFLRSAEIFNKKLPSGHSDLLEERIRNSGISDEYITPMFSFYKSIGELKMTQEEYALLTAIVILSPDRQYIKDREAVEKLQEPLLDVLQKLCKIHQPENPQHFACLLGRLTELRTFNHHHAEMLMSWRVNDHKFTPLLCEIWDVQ
# T1 sequence (P19793 1-462 partner): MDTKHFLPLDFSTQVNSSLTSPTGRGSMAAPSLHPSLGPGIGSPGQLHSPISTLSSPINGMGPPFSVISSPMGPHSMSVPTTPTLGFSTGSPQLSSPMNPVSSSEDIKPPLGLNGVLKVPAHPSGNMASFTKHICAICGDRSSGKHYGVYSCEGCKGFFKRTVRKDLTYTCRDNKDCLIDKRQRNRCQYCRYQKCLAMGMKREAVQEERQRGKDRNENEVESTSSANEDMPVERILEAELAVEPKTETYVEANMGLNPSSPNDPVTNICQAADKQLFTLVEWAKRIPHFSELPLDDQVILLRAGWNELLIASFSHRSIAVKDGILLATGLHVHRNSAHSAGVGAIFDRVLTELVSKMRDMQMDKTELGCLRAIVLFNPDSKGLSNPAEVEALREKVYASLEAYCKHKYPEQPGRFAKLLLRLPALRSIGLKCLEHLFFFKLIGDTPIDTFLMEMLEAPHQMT
# [2] = molecular target: T2, recombinant human sEH (Homo sapiens, UniProt P34913); test: sEH activity assay on recombinant protein; type: biochemical
# T2 sequence (P34913 1-555): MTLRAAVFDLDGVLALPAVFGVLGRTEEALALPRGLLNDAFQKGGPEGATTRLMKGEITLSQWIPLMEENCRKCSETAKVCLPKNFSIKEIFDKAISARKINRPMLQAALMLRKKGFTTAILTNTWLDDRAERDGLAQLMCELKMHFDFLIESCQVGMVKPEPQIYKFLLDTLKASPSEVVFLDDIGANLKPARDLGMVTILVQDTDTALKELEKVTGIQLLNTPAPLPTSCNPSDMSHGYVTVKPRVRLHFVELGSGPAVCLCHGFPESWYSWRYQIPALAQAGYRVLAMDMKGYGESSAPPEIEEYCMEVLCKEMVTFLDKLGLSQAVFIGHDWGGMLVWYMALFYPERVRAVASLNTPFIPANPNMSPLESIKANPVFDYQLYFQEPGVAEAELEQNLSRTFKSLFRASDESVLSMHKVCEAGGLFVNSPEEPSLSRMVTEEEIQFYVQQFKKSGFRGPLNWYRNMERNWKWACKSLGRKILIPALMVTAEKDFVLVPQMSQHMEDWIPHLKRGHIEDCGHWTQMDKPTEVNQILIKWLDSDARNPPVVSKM
# [3] = test system: HepG2 cells; test: WST-1 assay in HepG2 cells; type: cell-based; conditions: n=4; for concentration with anti-proliferative / toxic effect: WST-1 assay, HepG2 cells, 24 h; for cytotoxicity compared to 3: WST-1 assay in HepG2 cells
# [4] = molecular target: CysLT1R; conditions: read-out: CysLT1R Ki; cited from earlier work
# [5] = molecular target: T3, human CysLT1R (Homo sapiens, UniProt Q9Y271); test: CysLT1R antagonism assay, cell-based
# T3 sequence (Q9Y271 1-337): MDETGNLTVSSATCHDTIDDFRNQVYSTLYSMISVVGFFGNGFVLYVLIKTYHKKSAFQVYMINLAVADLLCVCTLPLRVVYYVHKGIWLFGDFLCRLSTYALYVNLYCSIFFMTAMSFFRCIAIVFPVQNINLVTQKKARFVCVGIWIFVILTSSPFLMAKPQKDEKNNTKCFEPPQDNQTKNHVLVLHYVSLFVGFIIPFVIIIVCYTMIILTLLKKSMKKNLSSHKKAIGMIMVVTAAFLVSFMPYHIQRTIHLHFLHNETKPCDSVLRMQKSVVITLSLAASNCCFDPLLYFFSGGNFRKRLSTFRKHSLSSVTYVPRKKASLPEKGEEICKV
# [6] = test system: nuclear receptors related to FXR (PPARα, PPARγ, PPARδ, LXRα, LXRβ, RXRα, RARα, CAR); test: Gal4 hybrid reporter gene assays for nuclear receptors related to FXR; type: cell-based, human; conditions: HEK293T, mean, n=2
# [7] = molecular target: T4, sEH in HepG2 cell homogenate (Homo sapiens, UniProt P34913); test: Cellular sEH assay: conversion of; type: cell-based; conditions: 10 μM; HepG2 homogenates; (±)14(15)-EET-d11; n≥4
# T4 sequence (P34913 1-555): T2 sequence (P34913 1-555)
# [8] = test system: FXR regulated genes (OSTα, SHP, CYP7A1) in HepG2 cells; type: cell-based; conditions: 10 μM, 12 h, qPCR, n=3
# [9] = molecular target: T5, RARα (Homo sapiens, UniProt P10276); test: Gal4 hybrid reporter gene assay for RARα in HEK293T cells; type: cell-based; conditions: mean, n=2
# T5 sequence (P10276 183-417 limits assumed): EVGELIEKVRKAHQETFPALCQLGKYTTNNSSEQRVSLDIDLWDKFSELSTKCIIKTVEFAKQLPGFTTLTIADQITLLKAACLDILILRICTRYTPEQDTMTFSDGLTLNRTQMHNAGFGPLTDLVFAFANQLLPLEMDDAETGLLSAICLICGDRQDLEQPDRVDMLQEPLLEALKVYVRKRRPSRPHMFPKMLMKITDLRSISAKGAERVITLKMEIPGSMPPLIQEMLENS
SMILES,EC50 [1] [µM],Emax [1] [%],IC50 [2] [µM],further results
"Cn1cc(Cc2cccc(C(=O)O)c2)c2cc(NC(=O)c3ccc(C(C)(C)C)cc3)ccc21 [compound 10, 3‐((5‐(4‐(tert‐Butyl)benzamido)‐1‐methyl‐1H‐indol‐3‐yl)methyl)benzoic acid]",1.19 ± 0.08,18,22 ± 3,–
"COc1cc(C(=O)O)ccc1Cn1ccc2cc(NC(=O)c3ccc(C(C)(C)C)cc3)ccc21 [compound 12, 4‐((5‐(4‐(tert‐Butyl)benzamido)‐1H‐indol‐1‐yl)methyl)‐3‐methoxybenzoic acid]",9.2 ± 0.8,23,> 100,–
"CC(C)(C)c1ccc(C(=O)Nc2ccc3ccn(Cc4cccc(C(=O)O)c4)c3c2)cc1 [compound 15, 3‐((6‐(4‐(tert‐Butyl)benzamido)‐1H‐indol‐1‐yl)methyl)benzoic acid]",–,–,4.3 ± 0.4,FXR EC50 [1]: inactive
"COc1cc(C(=O)NS(=O)(=O)c2ccccc2C)ccc1Cc1cn(C)c2ccc(NC(=O)OC3CCCC3)cc12 [compound 3, Zafirlukast, reference compound]",–,–,–,concentration with anti-proliferative / toxic effect [3]: ≥ 1 µM; Ki [4]: 0.0003 µM
"COc1cc(C(=O)O)ccc1Cn1ccc2ccc(NC(=O)c3ccc(C(C)(C)C)cc3)cc21 [compound 13, 4‐((6‐(4‐(tert‐Butyl)benzamido)‐1H‐indol‐1‐yl)methyl)‐3‐methoxybenzoic acid]",–,15,–,higher potency on FXR compared to 16 ([1]; 13 compared to 16): approx. 10 fold; improvement of EC50 value on FXR compared to 3 ([1]; compared to 3): 15 fold; IC50 [5]: ~1 µM; selectivity over nuclear receptors related to FXR [6]: selective; also recorded: high selectivity; cytotoxicity compared to 3 [3]: reduced cytotoxicity; also recorded: strongly reduced toxicity; concentration with anti-proliferative / toxic effect [3]: > 10 µM; conversion of EET to DHET (cellular sEH inhibition) [7]: blocked EET conversion to DHETs; OSTα expression [8]: induced expression; SHP expression [8]: induced expression
"COc1cc(C(=O)O)ccc1Cc1cn(C(C)C)c2ccc(NC(=O)c3ccc(C(C)(C)C)cc3)cc12 [compound 11, 4‐((5‐(4‐(tert‐Butyl)benzamido)‐1‐isopropyl‐1H‐indol‐3‐yl)methyl)‐3‐methoxybenzoic acid]",2.3 ± 0.1,11,> 100,–
"COc1ccc(C(=O)O)cc1Cc1cn(C)c2ccc(NC(=O)c3ccc(C(C)(C)C)cc3)cc12 [compound 9, 3‐((5‐(4‐tert‐Butylbenzamido)‐1‐methyl‐1H‐indol‐3‐yl)methyl)‐4‐methoxybenzoic acid]",–,–,86 ± 10,FXR EC50 [1]: inactive
"CC(C)(C)c1ccc(C(=O)Nc2ccc3ccn(Cc4ccc(C(=O)O)cc4)c3c2)cc1 [compound 16, 4‐((6‐(4‐(tert‐Butyl)benzamido)‐1H‐indol‐1‐yl)methyl)benzoic acid]",–,24,–,IC50 [5]: > 1 µM; RARα activation [9]: considerable RARα agonism; also recorded: marked RARα activation; selectivity over nuclear receptors related to FXR [6]: selective; also recorded: high selectivity; cytotoxicity compared to 3 [3]: reduced cytotoxicity; also recorded: strongly reduced toxicity; concentration with anti-proliferative / toxic effect [3]: > 10 µM; conversion of EET to DHET (cellular sEH inhibition) [7]: blocked EET conversion to DHETs; OSTα expression [8]: induced expression; SHP expression [8]: induced expression
"COc1cc(C(=O)O)ccc1Cc1cn(C)c2ccc(NC(=O)c3ccc(C(C)(C)C)cc3)cc12 [compound 5, 4‐((5‐(4‐(tert‐Butyl)benzamido)‐1‐methyl‐1H‐indol‐3‐yl)methyl)‐3‐methoxybenzoic acid]",0.6 ± 0.2,29,> 30,–
"COc1cc(C(=O)O)ccc1Cn1cnc2ccc(NC(=O)c3ccc(C(C)(C)C)cc3)cc21 [compound 14, 4‐((6‐(4‐(tert‐Butyl)benzamido)‐1H‐benzoimidazol‐1‐yl)methyl)‐3‐methoxybenzoic acid]",5.3 ± 0.4,26,18 ± 5,decrease of activity on sEH compared to 13 ([2]; benzimidazole 14 vs indole 13): approx. 10 fold
"COc1cc(C(=O)O)ccc1Cc1cn(C)c2ccc(NC(=O)c3ccncc3)cc12 [compound 7, 4‐((5‐(Isonicotinamido)‐1‐methyl‐1H‐indol‐3‐yl)methyl)‐3‐methoxybenzoic acid]",0.91 ± 0.06,15,> 100,–
"Cn1cc(Cc2ccc(C(=O)O)cc2)c2cc(NC(=O)c3ccc(C(C)(C)C)cc3)ccc21 [compound 8, 4‐((5‐(4‐(tert‐Butyl)benzamido)‐1‐methyl‐1H‐indol‐3‐yl)methyl)benzoic acid]",> 10,–,12 ± 1,–
"COc1cc(C(=O)O)ccc1Cc1cn(C)c2ccc(NC(=O)c3c(-c4c(Cl)cccc4Cl)noc3C(C)C)cc12 [compound 6, 4‐((5‐(3‐(2,6‐Dichlorophenyl)‐5‐isopropylisoxazole‐4‐carboxamido)‐1‐methyl‐1H‐indol‐3‐yl)methyl)‐3‐methoxybenzoic acid]",–,–,3.3 ± 0.6,FXR EC50 [1]: inactive
